Assay results from paper PMC6753678, “Fueling Open Innovation for Malaria Transmission-Blocking Drugs: Hundreds of Molecules Targeting Early Parasite Mosquito Stages” (Frontiers in Microbiology, 2019).
Like-named read-outs stand apart in the source and are kept apart here.

Key:
[1] = test system: 3D7-strain P. falciparum asexual parasites; test: P. falciparum asexual growth inhibition assay (Pf GIA); type: cell-based, Plasmodium falciparum; conditions: dose response confirmation; read-out: Pf asexual growth inhibition assays IC50
Method in brief: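 Steps: seed parasites (0.25% parasitemia, 2% hematocrit) onto compound dilutions; incubate 72 h at 37°C, 5% O2/5% CO2; freeze at −70°C and thaw; add LDH reaction mix, read A650 after 10 min. Percent growth inhibition derived from chloroquine and DMSO controls, averaged over three biological replicates.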

[2] = test system: P. berghei ookinete development; conditions: for % inhibition, Replicate A / % inhibition, Replicate B: primary screen at 1 μM
HepG2 cells = test: HepG2 cytotoxicity assay; conditions: for Pb ODA (this manuscript) HepG2 cytoxicity: HepG2 cytotoxicity listed with the Pb ODA data set (this manuscript); for IC50: read-out: HepG2 cytotoxicity assay IC50, dose response confirmation
Method in brief: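 Percent inhibition derived from fluorescent viability readout, normalised to DMSO (negative) and 50 μM doxorubicin (positive). Compound incubation lasted 48 h at 37°C, 5% CO2, with 2,500 HepG2 cells/well in MEM plus 10% FBS and 1% NEAA.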

[3] = read-out: Pb ODA (this manuscript) IC50, P. berghei ookinete development assay, this manuscript
[4] = read-out: Pb Ookinete development assay IC50, dose response confirmation
[5] = read-out: Pb ODA IC50, this manuscript
[6] = HepG2 values of the three screens unified
[7] = unified HepG2 value across the three screens

Row | Structure (SMILES) | IC50 [1] | Is compound selective in assay? Pb ODA active? [2] | % inhibition, Replicate A [2] | % inhibition, Replicate B [2] | IC50 [2, 3] | IC50 [2, 4] | Pb ODA (this manuscript) HepG2 cytoxicity (HepG2 cells) | IC50 (HepG2 cells) | Is compound selective in assay? Pb ODA active? ([2]; 1: YES, 0: NO) | IC50 [2, 5] | HepG2 cytoxicity (Pb ODA, this manuscript) (HepG2 cells) | Unified cytotox (HepG2 cells; [6]) | Unified cytotox (HepG2 cells; [7])
1 | Cl.Nc1nc(N)c2c(ccc3nn(S(=O)(=O)N4CCCC4)cc32)n1 [TCMDC-137854] | 144 nM | 0 (key: 1: YES; 0: NO) | 55.32% | 26.78% | 5300 nM | 5300 nM | 0.12 µM | 120 nM |  |  |  |  | 
2 | CCn1c(C(C)C)cc2c3c(N)nc(N)nc3ccc21 [TCMDC-137856] | 6.37 nM |  | 104.91% | 74.96% |  | 588 nM |  | 3.02 nM | 0 (0: NO) | 590 nM | 0.00302 µM | 0.00302 µM | 
3 | Cc1cc2c3c(N)nc(N)nc3ccc2n1C(C)C [TCMDC-137864] | 4 nM |  | 66.13% | 75.37% |  | 2320 nM |  | 33.1 nM | 0 (0: NO) | 2320 nM | 0.0331 µM | 0.0331 µM | 
4 | Nc1nc(N)c2c(Cl)c(N3CCOCC3)ccc2n1 [TCMDC-137868] | 72 nM |  | 53.12% | 26.39% |  | 3800 nM |  | 8.61 nM | 0 (0: NO) | 3800 nM |  |  | 0.00861 µM
5 | CCC(C(C)C)n1ccc2c3c(N)nc(N)nc3ccc21 (stereo not shown) [TCMDC-137872] | < 0.2 nM |  | 63.79% | 69.72% |  | 474 nM |  | 1.7 nM | 0 (0: NO) | 470 nM | 0.0017 µM | 0.0017 µM | 
6 | Cl.OCC(CO)(CO)NCc1ccc2c3c(cccc13)-c1ccccc1-2 [TCMDC-137877] | 1970 nM |  | 56.61% | 22.47% |  | 564 nM |  | 9550 nM | 1 (1: YES) | 560 nM |  |  | 9.55 µM
7 | CCCC(CCC)n1ccc2c3c(N)nc(N)nc3ccc21.Cl [TCMDC-137949] | < 0.2 nM |  | 42.83% | 73.31% |  | 2780 nM |  | 1.7 nM | 0 (0: NO) | 2780 nM | 0.0017 µM | 0.0017 µM | 
8 | Nc1nc(N)c2c(ccc3c2ccn3CCCCO)n1 [TCMDC-137959] | 61 nM |  | 70.70% | 40.44% |  | 3090 nM |  | 75.9 nM | 0 (0: NO) | 3090 nM | 0.0759 µM | 0.0759 µM | 
9 | CCCC(C)n1ccc2c3c(N)nc(N)nc3ccc21 (stereo not shown) [TCMDC-137964] | 35 nM |  | 50.53% | 51.77% |  | 4290 nM |  | 30 nM | 0 (0: NO) | 4290 nM | 0.03 µM | 0.03 µM | 
10 | CC(C)Cn1ncc2c3c(N)nc(N)nc3ccc21 [TCMDC-137970] | 80 nM | 0 (key: 1: YES; 0: NO) | 76.14% | 41.76% | 1750 nM | 1750 nM | 0.11 µM | 110 nM |  |  |  |  | 
11 | CN(C)S(=O)(=O)n1ccc2c3c(N)nc(N)nc3ccc21 [TCMDC-137973] | 6 nM | 0 (key: 1: YES; 0: NO) | 72.90% | 52.14% | 1270 nM | 1270 nM | 0.0017 µM | 1.7 nM |  |  |  |  | 
12 | Nc1nc(N)c2c(ccc3c2ccn3Cc2ccccn2)n1 [TCMDC-137980] | 1.15 nM |  | 50.19% | 73.34% |  | 2430 nM |  | 7.67 nM | 0 (0: NO) |  | 0.00767 µM | 0.00767 µM | 
13 | C=CCn1ccc2c3c(N)nc(N)nc3ccc21 [TCMDC-137995] | 24 nM |  | 75.02% | 69.00% |  | 2480 nM |  | 1000 nM | 0 (0: NO) | 2480 nM | 1.00 µM | 1.00 µM | 
14 | Nc1nc(N)c2c(ccc3c2ccn3Cc2cccc3ccccc23)n1 [TCMDC-137996] | 151 nM |  | 55.22% | 70.48% |  | 5760 nM |  | 1.7 nM | 0 (0: NO) | 5760 nM | 0.0017 µM | 0.0017 µM | 
15 | CC(C)Cn1ccc2c3c(N)nc(N)nc3ccc21 [TCMDC-137997] | 19 nM |  | 52.84% | 64.75% |  | 1400 nM |  | 250 nM | 0 (0: NO) | 1400 nM | 0.25 µM | 0.25 µM | 
16 | CCCCCCc1c(C)nc2cc(OC)ccc2c1O [TCMDC-138010] | 163 nM | 1 (key: 1: YES; 0: NO) | 110.05% | 119.15% | 80 nM | 81 nM | 100.00 µM | 100000 nM |  |  |  |  | 
17 | CCCCCCCc1c(C)nc2cccc(OC)c2c1O [TCMDC-138014] | 1990 nM | 0 (key: 1: YES; 0: NO) | 63.12% | 36.77% | 1150 nM | 1140 nM | 5.50 µM | 5500 nM |  |  |  |  | 
18 | CCCCCCCc1c(C)nc2c(OC)cccc2c1O [TCMDC-138016] | 195 nM | 1 (key: 1: YES; 0: NO) | 91.04% | 66.93% | 530 nM | 529 nM | 100.00 µM | 100000 nM |  |  |  |  | 
19 | CCC(CC)n1cc2c(ccc3nc(N)nc(N)c32)n1 [TCMDC-138019] | 60 nM | 0 (key: 1: YES; 0: NO) | 5.46% | 62.28% | 8220 nM | 8220 nM | 0.0017 µM | 1.7 nM |  |  |  |  | 
20 | COc1ccc(Cc2c(N)nc3nc(N)nc(N)c3c2C)cc1.Cl [TCMDC-138061] | 142 nM | 0 (key: 1: YES; 0: NO) | -0.33% | 51.34% | 5180 nM | 5180 nM | 0.055 µM | 55 nM |  |  |  |  | 
21 | COc1ccc(-c2nc3c(N)nc(N)nc3nc2-c2ccccc2Cl)cc1.COc1ccc(-c2nc3nc(N)nc(N)c3nc2-c2ccccc2Cl)cc1.Cl [TCMDC-138100] | 1550 nM |  | 50.02% | 33.60% |  | 8260 nM |  | 73300 nM | 0 (0: NO) | 8260 nM |  |  | 73.28 µM
22 | CC(O)C(C)(CO)NCc1ccc2c3c(cccc13)-c1ccccc1-2.Cl (stereo not shown) [TCMDC-138117] | 490 nM |  | 18.85% | 67.10% |  | 608 nM |  | 4470 nM | 0 (0: NO) | 610 nM |  |  | 4.47 µM
23 | COc1ccc2c(=O)c(I)c(C)[nH]c2c1 [TCMDC-138141] | < 0.3 nM | 0 (key: 1: YES; 0: NO) | 99.28% | 96.77% |  | 140 nM | 0.0017 µM | 1.7 nM |  |  |  |  | 
24 | Cc1ccc2c(=O)c3cc(C)ccc3[nH]c2c1 [TCMDC-138194] | 176 nM |  | 98.56% | 107.67% |  | 217 nM |  | 63800 nM | 1 (1: YES) | 220 nM |  |  | 63.83 µM
25 | COc1ccc(Cn2c(Nc3cccc(C(F)(F)F)c3)nc3cc(C(=O)NC(C)C)cnc32)cc1Cl [TCMDC-138556] | 1400 nM |  | 25.40% | 50.20% |  | 5440 nM |  | 51300 nM | 0 (0: NO) | 5440 nM |  |  | 51.29 µM
